Data on two compounds can be found in patent publication US8685455B2, “Oil-in-water emulsions containing lignan-class compounds and compositions containing the same” (Suntory Holdings Limited, priority 2005, dated 2014).

The nature of this series: Solubilities of sesamin, episesamin and their mixture in various oils or fats. The class given is physicochemical. The procedure:
To prepare the lignan-class compound containing emulsion of the present invention, liquid in which a lignan-class compound is dissolved (oil phase) is first prepared. As already mentioned, a sesame oil or the like may be used as the liquid, alternatively, the liquid may be prepared by adding a powdered form of lignan-class compound to a solvent oil or fat, mixing the mixture, and fully dissolving the powdered form to the solvent while agitating the mixture while heating. The blending ratio between the lignan-class compound and the fat or oil varies with the type of the lignan-class compound and the fat, or oil that serves as a solvent and it can be set appropriately in consideration of this fact. The assignees of the subject application have discovered that two lignan-class compounds, sesamin and episesamin, and a mixture thereof had different solubilities in different fats or oils (see Table 1).

With `c1cc2c(cc1[C@H]1OC[C@H]3[C@@H]1CO[C@@H]3c1ccc3c(c1)OCO3)OCO2` [Episesamin, episesamin], the “Solubilities (%) in DG” value amounted to 1.0%, the “Solubilities (%) in MCT-1” value was determined as 2.5%, the “Solubilities (%) in MCT-2” value is given as 2.5% and the “Solubilities (%) in Olive oil” value is 0.5%. Further, the “Solubilities (%) in Wheat germ oil” value amounted to 0.75%.

On to `c1cc2c(cc1[C@H]1OC[C@H]3[C@@H]1CO[C@@H]3c1ccc3c(c1)OCO3)OCO2` [Sesamin, sesamin], for which the “Solubilities (%) in DG” value stood at 1.25%, the “Solubilities (%) in MCT-1” value is reported as 4.0%, the “Solubilities (%) in MCT-2” value is recorded as 2.0% and the “Solubilities (%) in Olive oil” value is 0.75%. The “Solubilities (%) in Wheat germ oil” value came to 0.75%.
